Experimental data reported in patent US20230000820A1, “SOLID DOSAGE FORM OF N-1-PYRROLIDINE-N-5-(3-TRIFLUOROMETHOXY)PHENYL BIGUANIDE AND USES THEREOF” (ImmunoMet Therapeutics, Inc., priority 2021, published 2023).
Where two headings read alike, the source gives them in different places.

How the values were obtained:
[1] = parameters: species or system Beagle dogs; details: dog, in vivo, po
Procedure: (§1) Animals were dosed with N-1-pyrrolidine-N-5-(3-trifluoromethoxy)phenyl biguanide acetate salt as specified in Table 1. Dosages were freshly prepared on the day of dosing. The PO (per os) solution was DI water. The enteric capsule was HMPC enteric-coated capsules. The test substance was prepared and used immediately before administration. The preparation method was to weigh N-1-pyrrolidine-N-5-(3-trifluoromethoxy)phenyl biguanide and add sterile distilled water. The mixture was titrated to final volumes by mixing via sonication for 2 minutes and vortexing for 5 minutes. During the administration time, the preparation was handled at room temperature. All animals for IV administration had free access to food and water. Animals for PO were fasted overnight prior to dosing and were fed approximately 2 hours after dosing. Group 2 shared the same 2 animals. Animals in PO_A arm were dosed first. After 2 days washout period, animals in PO_B arm were dosed. After 2 days washout period, animals in PO_C arm were dosed. Clinical observations of animals treated with compound 1 were recorded as specified in Tables 3-5.
Plasma for both IV and PO dosing was sampled from animals pre-dose, and 5 minutes, 15 minutes, 30 minutes, 1 hour, 2 hours, 4 hours, 8 hours, and 24 hours post dose.
Samples were collected via venipuncture of peripheral veins except the dosing vein. 0.3 mL of blood was drawn per time point. The anticoagulant used was potassium EDTA. Whole blood samples were gently inverted several times to ensure anticoagulation then placed on wet ice prior to centrifugation. Within 30 minutes of collection, the samples were centrifuged at approximately 2000×g (force) for 10 minutes at 2 to 8° C. to obtain plasma. The resultant plasma samples were immediately separated divided into 2 aliquots (˜[…] each) and transferred to cryogenic vial. Samples were maintained on wet ice throughout processing and stored in a freezer at −75±15° C. prior to analysis.
The standard curve was run in duplicate with a minimum of six standards, and a minimum of five standards and the LLOQ should fall within ±20% of the nominal value. Verapamil and dexamethasone were normally used as internal standards. […] A minimum of duplicate QC's at three concentrations (low, mid, and high QC) were incorporated into each run with the low QC no more than 3×LLOQ, the mid QC around the middle of the curve, and the high QC should be near the ULOQ (minimally 80% but less than 100% of the value of the highest standard) for the run and the mean value should be within ±20% of the theoretical value. The results of the QC's provide the basis for accepting or rejecting the run. At least 67% or four of six QC's should be within 20% of their respective nominal values; 33% of the QC's (not replicates of the same concentration) can fall outside 20% of nominal value. The simplest model that adequately describes the concentration-response relationship should be used. Linear or quadratic regression can be used. Weighting was 1/x or 1/x2.
Concentrations of Test Article in the plasma samples were analyzed using a LC-MS/MS method. WinNonlin (Phoenix™, version 6.1) or other similar software will be used for pharmacokinetic calculations. The following pharmacokinetic parameters were be calculated, whenever possible from the plasma concentration versus time data: PO administration: T1/2, Cmax, Tmax, MRTinf, AUCinf, AUClast, F%, Number of Points for Regression (FIG. 1). […]

Beagle dogs = assay: Clinical Observation/Cageside Observation of dogs treated with compound 1 (Example 1); type: in vivo
Procedure: as §1

human subjects [2] = details: in vivo
Procedure: A phase 1 clinical study investigating the safety and tolerability of compound 1 in human subjects was conducted. Healthy volunteers were administered either an uncoated tablet at 100 mg QD (cohort 1, N=6), 200 mg QD (cohort 2, N=6), or 400 mg QD (cohort 3, N=6), or a coated tablet at 400 mg (cohort 4, N=6) or 800 mg QD (cohort 5, N=6), and the compound 1 plasma concentration achieved by the subjects was recorded over time (FIGS. 2 and 4). Cancer patients were administered either an uncoated tablet at 100 mg QOD (cohort 1, N=3), 200 mg QOD (cohort 2, N=3), 400 mg QOD (cohort 3, N=3), 800 mg QOD (cohort 4, N=3), or 1200 mg QOD (cohort 5, N=3), or were administered an uncoated tablet at 800 mg QD (cohort 6, N=3) or 1200 mg QD (cohort 7, N=4), and the compound 1 plasma concentration achieved by the subjects was recorded over time (FIGS. 3 and 4).

human subjects [3] = details: in vivo; remark: listed apart in the source
Procedure: A phase 1 clinical study investigating the safety and tolerability of compound 1 in human subjects was conducted. Healthy volunteers were administered either an uncoated tablet at 100 mg QD (cohort 1, N=6), 200 mg QD (cohort 2, N=6), or 400 mg QD (cohort 3, N=6), or a coated tablet at 400 mg (cohort 4, N=6) or 800 mg QD (cohort 5, N=6), and the compound 1 plasma concentration achieved by the subjects was recorded over time (FIGS. 2 and 4). Cancer patients were administered either an uncoated tablet at 100 mg QOD (cohort 1, N=3), 200 mg QOD (cohort 2, N=3), 400 mg QOD (cohort 3, N=3), 800 mg QOD (cohort 4, N=3), or 1200 mg QOD (cohort 5, N=3), or were administered an uncoated tablet at 800 mg QD (cohort 6, N=3) or 1200 mg QD (cohort 7, N=4), and the compound 1 plasma concentration achieved by the subjects was recorded over time (FIGS. 3 and 4). A phase 1 clinical study investigating the safety and tolerability of compound 1 in human subjects was conducted. 22 subjects with solid tumors were enrolled and split into seven cohorts. Cohort 1 received 100 mg QOD, cohort 2 received 200 mg QOD, cohort 3 received 400 mg QOD, cohort 4 received 800 mg QOD, cohort 5 received […], cohort 6 received 800 mg QD, and cohort 7 received 1,200 mg QD.

With N=C(NC(=N)N1CCCC1)Nc1cccc(OC(F)(F)F)c1 [compound 1, N-1-pyrrolidine-N-5-(3-trifluoromethoxy)phenyl biguanide] the “Notes: AUC” value [1] was “Improved AUC”, the “Notes: Bioavailability” value [1] was “Improved” and the “Notes: PK” value [1] was “no difference in PK”. For the same compound, the AUCInf ([1]; 100 mg/kg) was 10750 ng·h/mL, the T1/2 ([1]; 100 mg/kg) was 6.65 h and the “Notes: tolerability” value (Beagle dogs; PO A, HPMC Enteric Coating Capsule, vs Initial Formulation and Dosing (PO B)) was “Improved”. The “Notes: tolerability” value (Beagle dogs; PO C, Zofran given prior to compound 1 dosing) was “no difference”, the “Loose feces observed, timepoint” value (Beagle dogs; dog, in vivo) was “d. Loose feces was observed from POC-4(8319440) at 8 h timepoint” and the Comment present (Beagle dogs; dog, in vivo, 100 mg/kg) was “No”. For the same compound, the Discoloration (Beagle dogs; dog, in vivo, 100 mg/kg) was “No”, the “Dyspnea (labored breathing)” value (Beagle dogs; dog, in vivo, 100 mg/kg) was “No” and the “Emesis observed, timepoint” value (Beagle dogs; dog, in vivo, 100 mg/kg) was “c. “Loose feces” and “emesis” were observed from POA-4(8319440) at 4 h timepoint”. For the same compound, the “Feces with abnormal content” value (Beagle dogs; dog, in vivo, 100 mg/kg) was “No”, the Few feces (Beagle dogs; dog, in vivo, 100 mg/kg) was “No” and the Frothy (Beagle dogs; dog, in vivo, 100 mg/kg) was “No”. The Loose feces (Beagle dogs; dog, in vivo, 100 mg/kg) was “Yes(f)”, the Reduced food intake (Beagle dogs; dog, in vivo, 100 mg/kg) was “No” and the “Soft Stool” value (Beagle dogs; dog, in vivo, 100 mg/kg) was “No”. The “Soft stool observed, timepoint” value (Beagle dogs; dog, in vivo, 100 mg/kg) was “f. Soft stool was observed from POA-3(8310744) and POA-4(8319440) at 24 h timepoint”, the “Some broken capsule found in the loose feces, timepoint” value (Beagle dogs; dog, in vivo, 100 mg/kg) was “b. Some broken capsule was found in the loose feces at 30 min timepoint from POA-3” and the “Temperature Drop” value (Beagle dogs; dog, in vivo, 100 mg/kg) was “No”. For the same compound, the “Temperature Rise” value (Beagle dogs; dog, in vivo, 100 mg/kg) was “No”, the Torpidity (Beagle dogs; dog, in vivo, 100 mg/kg) was “No” and the “Tremor (slight)” value (Beagle dogs; dog, in vivo, 100 mg/kg) was “No”. For the same compound, the Uncoordinated movement (Beagle dogs; dog, in vivo, 100 mg/kg) was “No”, the Weight drop (Beagle dogs; dog, in vivo, 100 mg/kg) was “No” and the Comment present (Beagle dogs; dog, in vivo, iv, 10 mg/kg) was “No”. The Diarrhea (Beagle dogs; dog, in vivo, iv, 10 mg/kg) was “No”, the Discoloration (Beagle dogs; dog, in vivo, iv, 10 mg/kg) was “No” and the “Dyspnea (labored breathing)” value (Beagle dogs; dog, in vivo, iv, 10 mg/kg) was “No”. For the same compound, the “Feces with abnormal content” value (Beagle dogs; dog, in vivo, iv, 10 mg/kg) was “No”, the Few feces (Beagle dogs; dog, in vivo, iv, 10 mg/kg) was “No” and the Frothy (Beagle dogs; dog, in vivo, iv, 10 mg/kg) was “No”. The Loose feces (Beagle dogs; dog, in vivo, iv, 10 mg/kg) was “No”, the Reduced food intake (Beagle dogs; dog, in vivo, iv, 10 mg/kg) was “No” and the “Soft Stool” value (Beagle dogs; dog, in vivo, iv, 10 mg/kg) was “No”. For the same compound, the “Temperature Drop” value (Beagle dogs; dog, in vivo, iv, 10 mg/kg) was “No”, the “Temperature Rise” value (Beagle dogs; dog, in vivo, iv, 10 mg/kg) was “No” and the Torpidity (Beagle dogs; dog, in vivo, iv, 10 mg/kg) was “No”. For the same compound, the “Tremor (slight)” value (Beagle dogs; dog, in vivo, iv, 10 mg/kg) was “No”, the Uncoordinated movement (Beagle dogs; dog, in vivo, iv, 10 mg/kg) was “No” and the Weight drop (Beagle dogs; dog, in vivo, iv, 10 mg/kg) was “No”. The Gastrointestinal adverse events (human subjects [2]) was “Low-grade gastrointestinal adverse events were prominent”, the “Adverse events reported, character” value (human subjects [3]) was “primarily GI, low-grade, monitorable, manageable, and reversible” and the Dose limiting toxicities (human subjects [3]) was “no dose limiting toxicities”. For the same compound, the “Dose suggested as suitable for phase 2 studies” value (human subjects [3]) was 800 mg QD and the Gastrointestinal adverse events (human subjects [3]) was “Low-grade gastrointestinal adverse events were prominent”.
